Reference: patent US9409975B2, “Antibody binding microbial heparin binding motif to retard or prevent microbial biofilm formation on implanted medical devices” (priority 2012, dated 2016)

System: C. albicans binding to heparin
Assay: Inhibition of binding of CFSE-labeled C. albicans to plate-bound heparin (antibody and heparin inhibition studies)
Type: cell-based, Candida albicans
Experimental: A single colony of C. albicans was suspended in CSM to an OD600 of 0.1, diluted 1:200 into 25 ml CSM and grown at 30° C. overnight to mid-log phase (OD600 0.6-0.7). Cells were washed twice in sterile PBS and suspended in PBS at 2×10^7 CFU/ml. Carboxyfluorescein succinimidyl ester (Life Technologies) was dissolved in DMSO, diluted in PBS to 50 μM, and 0.5 ml CFSE mixed with 0.5 ml C. albicans suspension. The mixture was incubated for 20 min at room temperature on a rotator, washed once with FACS buffer, once with PBS, then suspended in 1 ml FACS buffer. Intensity of labeling was determined as the mean fluorescence intensity using a BD Accuri C6 cytometer (San Jose, Calif.) with excitation at 488 nm and a 533/30 emission filter. […] The following afternoon, C. albicans wild type strain and mutants were labeled with CFSE as follows: after growth of C. albicans to mid-log phase in CSM medium, organisms were washed two times in PBS and suspended in PBS at a concentration of 2×10^7/ml. 0.5 ml cells was mixed with 0.5 ml CFSE, covered in foil, and rotated on a mixer for 20 minutes at room temperature. […] At the end of the incubation period, wells were washed three times with PBS, and fluorescence in each well was measured (Beckman Coulter Multimode detector DTX880). […]

heparin
binding of C. albicans to solid-phase heparin after preincubation with heparin, in words (2.5 units (12.5 μg) solid-phase heparin): significantly decreased | decrease in binding of C. albicans to heparin after pre-incubation with soluble heparin (CFSE-labeled C. albicans pre-incubated with 100 units/ml heparin, p=0.022, data not shown): 27%
